Tested on: Normal human dermal fibroblasts
Assay: Collagen-increasing activity, ELISA for collagen type 1 or procollagen type 1
Assay type: cell-based
Details: 5 ng/ml, positive control, 4 days incubation
Description: Normal human dermal fibroblasts are seeded and grown to confluence in a 96-well plate prior to being treated with M. pudica extract or fractions thereof, prepared by solvent/solvent extractions (heptane/70% ethanol, ethyl acetate/water) at various concentrations in complete medium. Media alone serves as negative control and TGF-β serves as positive control. The plates are incubated for 4 days at 37° C./5% CO2 before the supernatants are harvested and stored at -70° C. until an ELISA is performed. Antibodies to collagen type 1 or procollagen type 1 are used for ELISA analysis to determine collagen levels.

## TGF-β
  increase in collagen levels: 46%
